# Assay results published in patent US11352392B2, “Artificially synthesized peptide H-473 and use thereof” (CHINA WEST NORMAL UNIVERSITY, priority 2018, dated 2022).
# Ends that are not written are not given here.
# Experiments:
# [1] = tested on: asthma in mice; experiment: Effect on asthma in mice (OVA sensitization, BALF cell count); format: in vivo, BALB/C mice; conditions: dexamethasone 1 mg/kg intramuscular, 7 d
# Experimental: At day 35 of the experiment, the test samples were respectively given one hour prior to OVA atomization.
# 5.6.1 Asthma model: mice were injected intraperitoneally with 0.2 ml of a sensitizing solution (ovalbumin OVA 80 μg+ Adjuvant liquid aluminum 0.1 ml) twice on days 0 and 14. From day 24 after the first sensitization, 2.5% OVA was aerosolized and inhaled for 45 min once daily for 18 days.
# 5.6.2 Administration: the corresponding test sample was given 1 h before the OVA solution atomization challenge since day 35 of the experiment. H-473 15 μg/kg group and H-473 30 μg/kg group were injected intramuscularly, respectively. The positive control group was injected with dexamethasone 1 mg/kg intramuscularly. Normal control group and model control group were injected with saline intramuscularly.
# General global observations: respiratory rate, whether there was dyspnea, cyanosis, dysphoria and convulsion.
# Bronchoalveolar lavage fluid (BALF) cells were counted and classified (EOS ratio elevated or not).
# [2] = tested on: MGC-803 xenograft tumors; experiment: Pharmacodynamic experiment on human gastric cancer MGC-803 xenograft tumor in nude mice; format: in vivo, BALB/c nude mice; conditions: MGC-803 xenograft nude mice; H-473 1 μg/kg or Interleukin-2 200,000 IU/kg, tail vein, once a day for 10 times
# Experimental: (§1) Model control group: physiological saline, 0.1 ml/10 g, once a day for 10 times.
# The cultured MGC-803 cell suspension was collected at a concentration of 1×10^7 cells/ml and inoculated subcutaneously in the right axilla of nude mice, 0.1 ml/mouse.
# Diameters of the xenograft tumors in nude mice were measured with a vernier caliper. 8 days after inoculation, the animals were randomized into groups with 8 in each group when the tumors grew to 100-150 mm^3. At the same time, each group of nude mice began to be dosed. […] The anti-tumor effect of the test sample was dynamically observed by using a method of measuring tumor diameter. […]
# (§2) Tumor volume (TV) was calculated according to the following formula: TV=½×a×b^2, wherein, a and b represent length and width, respectively.
# (§3) Relative tumor volume (RTV) was calculated according to the measured results according to the following formula: RTV=Vt/V0, wherein, V0 is tumor volume measured when the animals are divided into cages and dosed (i.e., d0) and Vt is tumor volume at each measurement.
# (§4) Evaluation indicator of anti-tumor activity: relative tumor proliferation rate T/C (%) was calculated according to the following formula:
# (§5) Evaluation indicator of antitumor activity: tumor growth inhibition rate (%) was calculated according to the following formula: […]
# [3] = tested on: cfpac-1 xenograft tumors; experiment: Pharmacodynamic experiment on cfpac-1 xenograft tumor in nude mice; format: in vivo, BALB/c nude mice; conditions: cfpac-1 xenograft nude mice; H-473 1 μg/kg or Interleukin-2 200,000 IU/kg, tail vein, once a day for 10 times
# Experimental: as §1
# The cultured cfpac-1 cell suspension was collected at a concentration of 1×10^7 cells/ml and inoculated subcutaneously in the right axilla of nude mice, 0.1 ml/mouse.
# Diameters of the xenograft tumors in nude mice were measured with a vernier caliper. 17 days after inoculation, the animals were randomized into groups with 8 in each group when the tumors grew to 100-150 mm^3. At the same time, each group of nude mice began to be dosed. […] The anti-tumor effect of the test sample was dynamically observed by using a method of measuring tumor diameter. […]
# as §2, §3, §4, §5
Compound,BALF ESO [1],BALF ESO % [1],BALF WBC [1],Body weight of animals At sacrifice [2],Body weight of animals At sacrifice [3]
"C[C@@H]1C[C@H]2[C@@H]3CCC4=CC(=O)C=C[C@]4(C)[C@@]3(F)[C@@H](O)C[C@]2(C)[C@@]1(O)C(=O)CO [Positive control, dexamethasone]",0.15 ± 0.05^## 10^9/L,3.75 ± 0.83 %,3.8 ± 0.5^## 10^9/L,,
"RGLRGLR [H-473, RGLRGLR]",,,,22.80 ± 0.97 g,22.91 ± 1.12 g
